In the supplement of paper PMC11451515:

Tested on: NOMO1
Test: cell viability relative to DMSO control; higher = less cytotoxic
Details: 48 h
Summary of the method: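 Viability, reported as a per-plate percentage of DMSO wells with cell-free wells as background, came from CellTiter-Glo One luminescence. Reading took place after 48 h at 37°C. Before that, NOMO1 or SEM (500 cells/well) or P12-Ichikawa (1000 cells/well) leukemia cells, adapted for at least four passages in each medium, were seeded in 1536-well plates (5 μl) and pin-dosed with library compounds in DMSO, 47 μM to 0.79 nM over 11 threefold points.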

[1] = HPLM + 10% dialyzed FBS, 0.000781 µM
[2] = HPLM + 10% dialyzed FBS, 0.00234 µM
[3] = HPLM + 10% dialyzed FBS, 0.00702 µM
[4] = HPLM + 10% dialyzed FBS, 0.0211 µM
[5] = HPLM + 10% dialyzed FBS, 0.0632 µM
[6] = HPLM + 10% dialyzed FBS, 0.19 µM
[7] = HPLM + 10% dialyzed FBS, 0.569 µM
[8] = HPLM + 10% dialyzed FBS, 1.71 µM
[9] = HPLM + 10% dialyzed FBS, 5.12 µM
[10] = HPLM + 10% dialyzed FBS, 15.4 µM
[11] = HPLM + 10% dialyzed FBS, 46.1 µM
[12] = RPMI 5 mM glucose + 10% FBS, 0.000781 µM
[13] = RPMI 5 mM glucose + 10% FBS, 0.00234 µM
[14] = RPMI 5 mM glucose + 10% FBS, 0.00702 µM
[15] = RPMI 5 mM glucose + 10% FBS, 0.0211 µM
[16] = RPMI 5 mM glucose + 10% FBS, 0.0632 µM
[17] = RPMI 5 mM glucose + 10% FBS, 0.19 µM
[18] = RPMI 5 mM glucose + 10% FBS, 0.569 µM
[19] = RPMI 5 mM glucose + 10% FBS, 1.71 µM
[20] = RPMI 5 mM glucose + 10% FBS, 5.12 µM
[21] = RPMI 5 mM glucose + 10% FBS, 15.4 µM
[22] = RPMI 5 mM glucose + 10% FBS, 46.1 µM
[23] = RPMI 5 mM glucose + 10% dialyzed FBS, 0.000781 µM
[24] = RPMI 5 mM glucose + 10% dialyzed FBS, 0.00234 µM
[25] = RPMI 5 mM glucose + 10% dialyzed FBS, 0.00702 µM
[26] = RPMI 5 mM glucose + 10% dialyzed FBS, 0.0211 µM
[27] = RPMI 5 mM glucose + 10% dialyzed FBS, 0.0632 µM
[28] = RPMI 5 mM glucose + 10% dialyzed FBS, 0.19 µM
[29] = RPMI 5 mM glucose + 10% dialyzed FBS, 0.569 µM
[30] = RPMI 5 mM glucose + 10% dialyzed FBS, 1.71 µM
[31] = RPMI 5 mM glucose + 10% dialyzed FBS, 5.12 µM
[32] = RPMI 5 mM glucose + 10% dialyzed FBS, 15.4 µM
[33] = RPMI 5 mM glucose + 10% dialyzed FBS, 46.1 µM

SMILES: O=C(O)CCCc1ccc(N(CCCl)CCCl)cc1
- cell viability [1]: 111%
- cell viability [2]: 119%
- cell viability [3]: 119%
- cell viability [4]: 143%
- cell viability [5]: 118%
- cell viability [6]: 151%
- cell viability [7]: 109%
- cell viability [8]: 134%
- cell viability [9]: 138%
- cell viability [10]: 123%
- cell viability [11]: 86.4%
- cell viability [12]: 115%
- cell viability [13]: 110%
- cell viability [14]: 134%
- cell viability [15]: 135%
- cell viability [16]: 127%
- cell viability [17]: 132%
- cell viability [18]: 146%
- cell viability [19]: 132%
- cell viability [20]: 141%
- cell viability [21]: 135%
- cell viability [22]: 61.4%
- cell viability [23]: 119%
- cell viability [24]: 125%
- cell viability [25]: 131%
- cell viability [26]: 125%
- cell viability [27]: 130%
- cell viability [28]: 125%
- cell viability [29]: 129%
- cell viability [30]: 108%
- cell viability [31]: 152%
- cell viability [32]: 141%
- cell viability [33]: 63.9%

SMILES: Cc1n[nH]c2ccc(-c3cncc(OC[C@@H](N)Cc4c[nH]c5ccccc45)c3)cc12
- cell viability [12]: 108%
- cell viability [13]: 114%
- cell viability [14]: 116%
- cell viability [15]: 118%
- cell viability [16]: 117%
- cell viability [17]: 77.4%
- cell viability [18]: 92.6%
- cell viability [19]: 33.2%
- cell viability [20]: 8.24%
- cell viability [21]: 1.64%
- cell viability [22]: 1.13%
- cell viability [23]: 104%
- cell viability [24]: 112%
- cell viability [25]: 93.1%
- cell viability [26]: 94.6%
- cell viability [27]: 93.1%
- cell viability [28]: 63.5%
- cell viability [29]: 63.6%
- cell viability [30]: 29.6%
- cell viability [31]: 5.35%
- cell viability [32]: 1.27%
- cell viability [33]: 0.733%

SMILES: CN1C(=O)C(=C/2N(C(=O)N(C3CC3)C(=O)C2=C1/NC4=CC=C(I)C=C4F)C5=CC=CC(=C5)NC(C)=O)\C
- cell viability [1]: 117%
- cell viability [2]: 134%
- cell viability [3]: 113%
- cell viability [4]: 99.3%
- cell viability [5]: 83.4%
- cell viability [6]: 61.1%
- cell viability [7]: 52.3%
- cell viability [8]: 41.1%
- cell viability [9]: 10.8%
- cell viability [10]: 7.05%
- cell viability [11]: 6.86%
- cell viability [23]: 117%
- cell viability [24]: 135%
- cell viability [25]: 124%
- cell viability [26]: 92.7%
- cell viability [27]: 81%
- cell viability [28]: 63.8%
- cell viability [29]: 55.1%
- cell viability [30]: 49.6%
- cell viability [31]: 27.6%
- cell viability [32]: 9.59%
- cell viability [33]: 6.9%

SMILES: O=C(O)C(=O)Nc1cccc(-c2nnn[nH]2)c1
- cell viability [1]: 96.8%
- cell viability [2]: 117%
- cell viability [3]: 117%
- cell viability [4]: 119%
- cell viability [5]: 114%
- cell viability [6]: 108%
- cell viability [7]: 130%
- cell viability [8]: 114%
- cell viability [9]: 123%
- cell viability [10]: 106%
- cell viability [11]: 116%
- cell viability [12]: 94.3%
- cell viability [13]: 102%
- cell viability [14]: 109%
- cell viability [15]: 95.8%
- cell viability [16]: 111%
- cell viability [17]: 108%
- cell viability [18]: 97.3%
- cell viability [19]: 106%
- cell viability [20]: 108%
- cell viability [21]: 120%
- cell viability [22]: 99.2%
- cell viability [23]: 109%
- cell viability [24]: 103%
- cell viability [25]: 111%
- cell viability [26]: 99.2%
- cell viability [27]: 112%
- cell viability [28]: 106%
- cell viability [29]: 126%
- cell viability [30]: 104%
- cell viability [31]: 113%
- cell viability [32]: 113%
- cell viability [33]: 120%

SMILES: CCOC(=O)c1c(/C(C#N)=C\N)c2ccc(Cl)c(Cl)c2n1C
- cell viability [1]: 89.9%
- cell viability [2]: 95.7%
- cell viability [3]: 94.3%
- cell viability [4]: 95%
- cell viability [5]: 72.6%
- cell viability [6]: 101%
- cell viability [7]: 91.1%
- cell viability [8]: 87.2%
- cell viability [9]: 94%
- cell viability [10]: 95.8%
- cell viability [11]: 103%
- cell viability [12]: 81.9%
- cell viability [13]: 80.7%
- cell viability [14]: 82.5%
- cell viability [15]: 92%
- cell viability [16]: 80.4%
- cell viability [17]: 77.3%
- cell viability [18]: 79.7%
- cell viability [19]: 88%
- cell viability [20]: 80.8%
- cell viability [21]: 78.6%
- cell viability [22]: 95.3%
- cell viability [23]: 90.7%
- cell viability [24]: 90.1%
- cell viability [25]: 87.7%
- cell viability [26]: 91.4%
- cell viability [27]: 79.2%
- cell viability [28]: 77%
- cell viability [29]: 86%
- cell viability [30]: 86.8%
- cell viability [31]: 87.2%
- cell viability [32]: 77.6%
- cell viability [33]: 101%

SMILES: O=C(O)c1nn(Cc2ccc(Cl)cc2Cl)c2ccccc12
- cell viability [1]: 112%
- cell viability [2]: 116%
- cell viability [3]: 106%
- cell viability [4]: 100%
- cell viability [5]: 78.3%
- cell viability [6]: 83.8%
- cell viability [7]: 71.2%
- cell viability [8]: 61.8%
- cell viability [9]: 92.3%
- cell viability [10]: 76.5%
- cell viability [11]: 69.9%
- cell viability [12]: 86.1%
- cell viability [13]: 76.6%
- cell viability [14]: 78.1%
- cell viability [15]: 83.8%
- cell viability [16]: 96.7%
- cell viability [17]: 81.7%
- cell viability [18]: 75.5%
- cell viability [19]: 83.8%
- cell viability [20]: 85.4%
- cell viability [21]: 79.5%
- cell viability [22]: 74%
- cell viability [23]: 79.9%
- cell viability [24]: 89.7%
- cell viability [25]: 97.4%
- cell viability [26]: 94.2%
- cell viability [27]: 91.1%
- cell viability [28]: 85.6%
- cell viability [29]: 73.8%
- cell viability [30]: 75.3%
- cell viability [31]: 83.2%
- cell viability [32]: 81.2%
- cell viability [33]: 76.1%

SMILES: C=C1C(=O)O[C@@H]2[C@H]3O[C@]3(C)CC/C=C(\C)CC[C@@H]12
- cell viability [1]: 110%
- cell viability [2]: 117%
- cell viability [3]: 110%
- cell viability [4]: 115%
- cell viability [5]: 117%
- cell viability [6]: 142%
- cell viability [7]: 114%
- cell viability [8]: 93.8%
- cell viability [9]: 15.9%
- cell viability [10]: 14.9%
- cell viability [11]: 3.29%
- cell viability [12]: 115%
- cell viability [13]: 121%
- cell viability [14]: 116%
- cell viability [15]: 113%
- cell viability [16]: 112%
- cell viability [17]: 108%
- cell viability [18]: 106%
- cell viability [19]: 102%
- cell viability [20]: 46.4%
- cell viability [21]: 5.46%
- cell viability [22]: 3.54%
- cell viability [23]: 98.1%
- cell viability [24]: 103%
- cell viability [25]: 104%
- cell viability [26]: 113%
- cell viability [27]: 114%
- cell viability [28]: 124%
- cell viability [29]: 112%
- cell viability [30]: 99.1%
- cell viability [31]: 62.3%
- cell viability [32]: 6.1%
- cell viability [33]: 3.17%
